Measured values published in patent US10597388B2, “Pyridazinone herbicides” (FMC CORPORATION, priority 2014, dated 2020).

Assays:
Assay type in all cases: in vivo
[1] = system: galium (catchweed bedstraw, Galium aparine); test: Test A greenhouse herbicide test, postemergence
In short: (§1)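 Visual injury score, 0 (no effect) to 100 (complete control), versus untreated controls roughly 10 d after postemergence spray; plants at one- to two-leaf stage, 2 to 10 cm tall, in loam soil and sand, kept in greenhouse.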

[2] = system: blackgrass (Alopecurus myosuroides); test: Test A greenhouse herbicide test, postemergence
In short: as §1

[3] = system: barnyardgrass (Echinochloa crus-galli); test: Test B flooded paddy test; conditions: 250 g ai/ha, Flood, visual rating on scale of 0 to 100 where 0 is no effect and 100 is complete control, 13 to 15 d after treatment
In short: (§2)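 Plants grown to the 2-leaf stage. At treatment, pots were flooded to 3 cm above the soil, compound was applied directly to the paddy water, and that depth was held throughout. After 13 to 15 d in the greenhouse, response was rated visually against controls on a 0 (no effect) to 100 (complete control) scale.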

rice (Oryza sativa) = test: Test B flooded paddy test; conditions: 250 g ai/ha, Flood, visual rating on scale of 0 to 100 where 0 is no effect and 100 is complete control, 13 to 15 d after treatment
In short: as §2

[4] = system: sedge, umbrella (small-flower umbrella sedge, Cyperus difformis); test: Test B flooded paddy test; conditions: 250 g ai/ha, Flood, visual rating on scale of 0 to 100 where 0 is no effect and 100 is complete control, 13 to 15 d after treatment
In short: as §2

[5] = system: ducksalad (Heteranthera limosa); test: Test B flooded paddy test; conditions: 250 g ai/ha, Flood, visual rating on scale of 0 to 100 where 0 is no effect and 100 is complete control, 13 to 15 d after treatment
In short: as §2

[6] = system: morningglory (Ipomoea coccinea); test: Test C greenhouse herbicide test, pre- and postemergence
In short: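 Pre- and postemergence greenhouse screen; values are visual control ratings, 0 meaning no effect and 100 complete kill, assigned relative to untreated plants after 13 to 15 d.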

[7] = system: oat, wild (wild oat, Avena fatua); test: Test C greenhouse herbicide test, postemergence
Source text: (§3) At the same time, plants selected from these crop and weed species and also chickweed (common chickweed, Stellaria media), kochia (Kochia scoparia), and oat, wild (wild oat, Avena fatua), were planted in pots containing Redi-Earth® planting medium (Scotts Company, 14111 Scottslawn Road, Marysville, Ohio 43041) comprising spaghnum peat moss, vermiculite, wetting agent and starter nutrients and treated with postemergence applications of test chemicals formulated in the same manner. Plants ranged in height from 2 to 18 cm (1- to 4-leaf stage) for postemergence treatments. Treated plants and controls were maintained in a greenhouse for 13 to 15 d, after which time all species were compared to controls and visually evaluated. Plant response ratings, summarized in Table C, are based on a scale of 0 to 100 where 0 is no effect and 100 is complete control. A dash (-) response means no test result.

kochia (Kochia scoparia) = test: Test C greenhouse herbicide test, postemergence
Source text: as §3

[8] = Preemergence, 31 g ai/ha, scale 0 to 100, 0 is no effect, 100 is complete control
[9] = Preemergence, 62 g ai/ha, scale 0 to 100, 0 is no effect, 100 is complete control
[10] = Preemergence, 125 g ai/ha, scale 0 to 100, 0 is no effect, 100 is complete control
[11] = Preemergence, 250 g ai/ha, scale 0 to 100, 0 no effect, 100 complete control
[12] = 125 g ai/ha, 0 to 100 scale where 0 is no effect and 100 is complete control
[13] = 500 g ai/ha, visual rating after approx. 10 d, 0 to 100 scale (0 no effect, 100 complete control)
[14] = Postemergence, 31 g ai/ha, scale 0 to 100 (0 no effect, 100 complete control)
[15] = Postemergence, 62 g ai/ha, 0 to 100 scale (0 no effect, 100 complete control)
[16] = Postemergence, 250 g ai/ha, scale 0 to 100, 0 no effect, 100 complete control, 13 to 15 d
[17] = postemergence, 125 g ai/ha, scale 0 to 100, 0 no effect, 100 complete control
[18] = Postemergence, 8 g ai/ha, scale 0 to 100 (0 no effect, 100 complete control)
[19] = Postemergence, 16 g ai/ha, scale 0 to 100 (0 no effect, 100 complete control)
[20] = 125 g ai/ha, 0 to 100 scale, 0 no effect, 100 complete control

| Structure (SMILES) | Plant response rating, Morningglory [6, 8] | Plant response rating, Morningglory [6, 9] | Plant response rating, Morningglory [6, 10] | Morningglory plant response rating [6, 11] | Plant response rating, Galium [1, 12] | Plant response rating, Galium [1, 13] | Plant response rating, Blackgrass [2, 12] | Plant response rating, Blackgrass [2, 13] | Plant response rating, Barnyardgrass [3] | Plant response rating, Rice (rice (Oryza sativa)) | Plant response rating, Sedge, Umbrella [4] | Plant response rating, Ducksalad [5] | Plant response rating, Morningglory [6, 14] | Morningglory plant response rating [6, 15] | Plant response rating, Morningglory [6, 16] | Morningglory plant response rating [6, 17] | Plant response rating, Oat, Wild [7, 14] | Oat, Wild plant response rating [7, 15] | Plant response rating, Oat, Wild [7, 16] | Plant response rating, Kochia (kochia (Kochia scoparia); [14]) | other results |
| --- | --- | --- | --- | --- | --- | --- | --- | --- | --- | --- | --- | --- | --- | --- | --- | --- | --- | --- | --- | --- | --- |
| Cc1cc(C)c2oc(C)c(-c3c(OC(=O)C(C)(C)C)c(C)nn(C)c3=O)c2c1 [Compound 18, 1,6-dihydro-1,3-dimethyl-6-oxo-5-(2,5,7-trimethyl-3-benzofuranyl)-4-pyridazinyl 2,2-dimethylpropanoate] | – | – | – | – | – | – | – | – | – | – | – | – | – | – | – | – | – | – | – | – | pest or weed control at 125 g/ha ([1]; Galium, post-emergence, 240 h, 125 g ai/ha, visual rating after approx. 10 d, 0 to 100 scale (0 no effect, 100 complete control), read-out: Plant response rating, Galium): 40%; pest or weed control at 500 g/ha ([1]; Galium, post-emergence, 240 h, 500 g ai/ha, 0 to 100 scale, 0 is no effect, 100 is complete control, read-out: Galium plant response rating): 60%; pest or weed control at 125 g/ha ([2]; Alopecurus myosuroides, post-emergence, 240 h, 125 g ai/ha, visual rating after approx. 10 d, 0 to 100 scale (0 no effect, 100 complete control), read-out: Plant response rating, Blackgrass): 0%; pest or weed control at 500 g/ha ([2]; Alopecurus myosuroides, post-emergence, 240 h, 500 g ai/ha, 0 to 100 scale, 0 is no effect, 100 is complete control, read-out: Blackgrass plant response rating): 20%; pest or weed control at 250 g/ha ([3]; Echinochloa crus-galli, 360 h, read-out: Plant response rating, Barnyardgrass): 0%; plant injury at 250 g/ha (rice (Oryza sativa); Oryza sativa, 360 h, read-out: Plant response rating, Rice): 0%; pest or weed control at 250 g/ha ([4]; Cyperus difformis, 360 h, read-out: Plant response rating, Sedge, Umbrella): 0%; pest or weed control at 250 g/ha ([5]; Heteranthera limosa, 360 h, read-out: Plant response rating, Ducksalad): 30% |
| CC(=O)Oc1c(Cl)nn(C)c(=O)c1-c1c(C)sc2ccc(Cl)cc12 [Compound 116] | 55 | 80 | 85 | 98 | 70 | 100 | 30 | 70 | 0 | 0 | 70 | 50 | – | – | – | – | – | – | – | – | – |
| CCC(=O)Oc1c(OC)nn(C)c(=O)c1-c1c(C)sc2ccc(Cl)cc12 [Compound 131] | 35 | 55 | 85 | 95 | 70 | 100 | 30 | 50 | 0 | 0 | 0 | 0 | – | – | – | – | – | – | – | – | – |
| CCC(=O)Oc1c(C)nn(C)c(=O)c1-c1ccc(Br)c2ccccc12 [Compound 134] | 75 | 90 | 95 | 100 | 100 | 100 | 60 | 70 | 0 | 0 | 0 | 0 | 98 | 100 | 100 | 100 | 90 | 90 | 95 | 95 | Oat, Wild plant response rating [7, 17]: 95; Kochia plant response rating (kochia (Kochia scoparia); [15]): 100; Plant response rating, Kochia (kochia (Kochia scoparia); [16]): 100; Kochia plant response rating (kochia (Kochia scoparia); [17]): 100 |
| COC(=O)Oc1c(OC)nn(C)c(=O)c1-c1c(C)ccc2ccccc12 [Compound 136] | 80 | 95 | 98 | 98 | 100 | 100 | 60 | 90 | 0 | 0 | 0 | 0 | 98 | 98 | 100 | 100 | 50 | 75 | 90 | 95 | Oat, Wild plant response rating [7, 17]: 85; Kochia plant response rating (kochia (Kochia scoparia); [15]): 95; Plant response rating, Kochia (kochia (Kochia scoparia); [16]): 100; Kochia plant response rating (kochia (Kochia scoparia); [17]): 100 |
| Cc1nn(C)c(=O)c(-c2ccc(Cl)c3ccccc23)c1O [Compound 139] | 85 | 90 | 95 | 98 | 100 | 100 | 60 | 90 | 0 | 0 | 0 | 0 | 98 | 100 | 100 | 100 | 90 | 90 | 90 | 95 | Oat, Wild plant response rating [7, 17]: 90; Kochia plant response rating (kochia (Kochia scoparia); [15]): 100; Plant response rating, Kochia (kochia (Kochia scoparia); [16]): 100; Kochia plant response rating (kochia (Kochia scoparia); [17]): 100 |
| Cc1ccc2ccc(Cl)cc2c1-c1c(O)c(C)nn(C)c1=O [Compound 144] | 90 | – | – | – | 100 | 100 | 90 | 100 | 30 | 30 | 0 | 40 | 98 | – | – | – | 90 | – | – | 98 | Plant response rating, Morningglory ([6]; 4 g ai/ha, preemergence, visual rating, scale 0 to 100 (0 no effect, 100 complete control), 13 to 15 d): 25; Morningglory plant response rating [6, 18]: 90; Plant response rating, Morningglory [6, 18]: 95; Plant response rating, Morningglory [6, 19]: 98; Plant response rating, Morningglory ([6]; Preemergence, 16 g ai/ha, scale 0 to 100, 0 is no effect, 100 is complete control): 80; Oat, Wild plant response rating [7, 18]: 80; Plant response rating, Oat, Wild [7, 18]: 90; Plant response rating, Oat, Wild [7, 19]: 90; Kochia plant response rating (kochia (Kochia scoparia); [18]): 90; Plant response rating, Kochia (kochia (Kochia scoparia); [18]): 90; Plant response rating, Kochia (kochia (Kochia scoparia); [19]): 98 |
| CC(=O)Oc1c(Cl)nn(C)c(=O)c1-c1c(C)sc2ccc(C(F)(F)F)cc12 [Compound 152] | 10 | 40 | 75 | 90 | – | 70 | – | 30 | 0 | 0 | 0 | 0 | – | – | – | – | – | – | – | – | Plant response rating, Galium [1, 20]: 60; Plant response rating, Blackgrass [2, 20]: 20 |
